Assay results published in paper PMC9421653 (Journal of Medicinal Chemistry, 2022).

Each compound was assayed against T1, human GPR84 (Homo sapiens, UniProt P04899+Q9NQS5) (assay: biochemical). Conditions: [35S]GTPγS assay; negative log of the IC50 in molar; mean ± SEM.
T1 construct: expressed in transfected cells; host or cells: Flp-In T-REx 293 cells, doxycycline-induced; membrane preparations
Assay type: biochemical

T1 sequence (Q9NQS5+P04899 fused): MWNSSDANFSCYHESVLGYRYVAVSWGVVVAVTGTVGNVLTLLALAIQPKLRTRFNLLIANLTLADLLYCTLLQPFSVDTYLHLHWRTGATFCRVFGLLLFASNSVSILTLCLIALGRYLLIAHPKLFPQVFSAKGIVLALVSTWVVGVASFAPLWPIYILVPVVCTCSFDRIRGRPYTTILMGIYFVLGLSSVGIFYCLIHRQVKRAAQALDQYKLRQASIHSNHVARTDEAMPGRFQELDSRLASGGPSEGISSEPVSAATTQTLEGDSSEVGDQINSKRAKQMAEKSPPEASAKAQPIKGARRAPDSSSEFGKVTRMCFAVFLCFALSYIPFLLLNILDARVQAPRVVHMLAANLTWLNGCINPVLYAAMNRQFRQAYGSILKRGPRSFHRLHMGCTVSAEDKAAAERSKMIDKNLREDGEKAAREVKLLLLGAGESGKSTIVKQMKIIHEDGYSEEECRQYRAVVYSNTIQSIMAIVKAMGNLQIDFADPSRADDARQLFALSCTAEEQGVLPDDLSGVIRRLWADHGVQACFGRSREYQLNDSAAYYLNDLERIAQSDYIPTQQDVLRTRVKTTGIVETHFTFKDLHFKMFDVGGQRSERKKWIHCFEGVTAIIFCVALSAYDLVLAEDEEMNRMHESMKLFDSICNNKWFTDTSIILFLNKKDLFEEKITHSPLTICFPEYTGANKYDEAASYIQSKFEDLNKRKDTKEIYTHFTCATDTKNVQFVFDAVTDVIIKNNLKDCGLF

Compound | GTPγS (pIC50)
COC(=O)c1ccc(-c2nc(Cc3c[nH]c4cnccc34)nnc2-c2ccccc2)cc1 [Compound 65, Methyl 4-(3-((1H-Pyrrolo[2,3-c]pyridin-3-yl)methyl)-6-phenyl-1,2,4-triazin-5-yl)benzoate] | 7.37 ± 0.33
Cc1ccc2c(Cc3nnc(-c4ccccc4)c(-c4ccccc4)n3)c[nH]c2c1 [Compound 16, 3-((5,6-Diphenyl-1,2,4-triazin-3-yl)methyl)-6-methyl-1H-indole] | <4.70
O=C(NCCO)c1ccc(-c2nnc(Cc3c[nH]c4cnccc34)nc2-c2ccccc2)cc1 [Compound 70, 4-(3-((1H-Pyrrolo[2,3-c]pyridin-3-yl)methyl)-5-phenyl-1,2,4-triazin-6-yl)-N-(2-hydroxyethyl)benzamide] | 7.04 ± 0.07
COC(=O)c1ccc(-c2nnc(Cc3c[nH]c4ccccc34)nc2-c2ccc(C(=O)OC)cc2)cc1 [Compound 10, Methyl 4-[3-(1H-Indol-3-ylmethyl)-6-(4-methoxycarbonylphenyl)-1,2,4-triazin-5-yl]benzoate] | 6.67 ± 0.08
COC(=O)c1ccc(-c2nc(Cc3c[nH]c4ccccc34)nnc2-c2ccccc2)cc1 [Compound 49, Methyl 4-(3-((1H-Indol-3-yl)methyl)-6-phenyl-1,2,4-triazin-5-yl)benzoate] | 6.74 ± 0.05
CNC(=O)c1ccc(-c2nnc(Cc3c[nH]c4ccncc34)nc2-c2ccccc2)cc1 [Compound 72, 4-(3-((1H-Pyrrolo[3,2-c]pyridin-3-yl)methyl)-5-phenyl-1,2,4-triazin-6-yl)-N-methylbenzamide] | 6.35 ± 0.06
COc1ccc(-c2nnc(Cc3cn(C)c4ccccc34)nc2-c2ccc(OC)cc2)cc1 [Compound 13, 3-((5,6-Bis(4-methoxyphenyl)-1,2,4-triazin-3-yl)methyl)-1-methyl-1H-indole] | <4.70
CN(C)Cc1ccc(-c2nnc(Cc3c[nH]c4ccccc34)nc2-c2ccccc2)cc1 [Compound 44, 1-(4-(3-((1H-Indol-3-yl)methyl)-5-phenyl-1,2,4-triazin-6-yl)phenyl)-N,N-dimethylmethanamine] | 6.68 ± 0.05
Brc1ccc(-c2nnc(Cc3c[nH]c4ccccc34)nc2-c2ccc(Br)cc2)cc1 [Compound 7, 3-((5,6-Bis(4-bromophenyl)-1,2,4-triazin-3-yl)methyl)-1H-indole] | 7.60 ± 0.02
CS(=O)(=O)NCc1ccc(-c2nnc(Cc3c[nH]c4ccccc34)nc2-c2ccccc2)cc1 [Compound 48, N-(4-(3-((1H-Indol-3-yl)methyl)-5-phenyl-1,2,4-triazin-6-yl)benzyl)methanesulfonamide] | 7.61 ± 0.06
3-((5-Phenyl-6-(pyrimidin-2-yl)-1,2,4-triazin-3-yl)methyl)-1H-indole or 3-((6-phenyl-5-(pyrimidin-2-yl)-1,2,4-triazin-3-yl)methyl)-1H-indole [Compound 32] | 6.58 ± 0.08
CNC(=O)c1ccc(-c2nc(Cc3c[nH]c4ccncc34)nnc2-c2ccccc2)cc1 [Compound 71, 4-(3-((1H-Pyrrolo[3,2-c]pyridin-3-yl)methyl)-6-phenyl-1,2,4-triazin-5-yl)-N-methylbenzamide] | 5.64 ± 0.05
c1ccc(-c2nc(Cc3c[nH]c4cnccc34)nnc2-c2ccc(CN3CCOCC3)cc2)cc1 [Compound 64, 4-(4-(3-((1H-Pyrrolo[2,3-c]pyridin-3-yl)methyl)-5-phenyl-1,2,4-triazin-6-yl)benzyl)morpholine] | 8.33 ± 0.15
CN1CCN(C(=O)c2ccc(-c3nnc(Cc4c[nH]c5ccccc45)nc3-c3ccccc3)cc2)CC1=O [Compound 80, 4-(4-(3-((1H-Indol-3-yl)methyl)-5-phenyl-1,2,4-triazin-6-yl)benzoyl)-1-methylpiperazin-2-one] | 6.69 ± 0.04
COC(=O)c1ccc(-c2nnc(Cc3c[nH]c4cnccc34)nc2-c2ccccc2)cc1 [Compound 66, Methyl 4-(3-((1H-Pyrrolo[2,3-c]pyridin-3-yl)methyl)-5-phenyl-1,2,4-triazin-6-yl)benzoate] | 7.02 ± 0.06
CS(=O)(=O)c1ccc(-c2nnc(Cc3c[nH]c4ccccc34)nc2-c2ccccc2)cc1 [Compound 36, 3-((6-(4-(Methylsulfonyl)phenyl)-5-phenyl-1,2,4-triazin-3-yl)methyl)-1H-indole] | 6.18 ± 0.04
OCc1ccc(-c2nc(Cc3c[nH]c4ccccc34)nnc2-c2ccccc2)cc1 [Compound 39, (4-(3-((1H-Indol-3-yl)methyl)-6-phenyl-1,2,4-triazin-5-yl)phenyl)methanol] | 7.16 ± 0.04
Fc1ccc(-c2nnc(Cc3c[nH]c4ccccc34)nc2-c2ccc(F)cc2)cc1 [Compound 5, 3-((5,6-Bis(4-fluorophenyl)-1,2,4-triazin-3-yl)methyl)-1H-indole] | 7.81 ± 0.04
c1ccc(-c2nnc(Cc3c[nH]c4cnccc34)nc2-c2cnccn2)cc1 [Compound 59, 3-((6-Phenyl-5-(pyrazin-2-yl)-1,2,4-triazin-3-yl)methyl)-1H-pyrrolo[2,3-c]pyridine] | 5.38 ± 0.12
O=C(NCCO)c1ccc(-c2nc(Cc3c[nH]c4cnccc34)nnc2-c2ccccc2)cc1 [Compound 69, 4-(3-((1H-Pyrrolo[2,3-c]pyridin-3-yl)methyl)-6-phenyl-1,2,4-triazin-5-yl)-N-(2-hydroxyethyl)benzamide] | 6.84 ±0.05

Compound | GTPγS (pIC50)
CNC(=O)c1ccc(-c2nnc(Cc3c[nH]c4ccccc34)nc2-c2ccccc2)cc1 [Compound 73, 4-(3-((1H-Indol-3-yl)methyl)-5-phenyl-1,2,4-triazin-6-yl)-N-methylbenzamide] | 7.18 ± 0.09
CC(=O)NCCNC(=O)c1ccc(-c2nnc(Cc3c[nH]c4ccccc34)nc2-c2ccccc2)cc1 [Compound 79, 4-(3-((1H-Indol-3-yl)methyl)-5-phenyl-1,2,4-triazin-6-yl)-N-(2-acetamidoethyl)benzamide] | 6.26 ± 0.06
Fc1ccc2c(Cc3nnc(-c4ccccc4)c(-c4ccccc4)n3)c[nH]c2c1 [Compound 15, 3-((5,6-Diphenyl-1,2,4-triazin-3-yl)methyl)-6-fluoro-1H-indole] | 6.65 ± 0.03
FC(F)(F)Oc1ccccc1-c1cnc(Cc2c[nH]c3ccccc23)nn1 [Compound 27, 3-((6-(2-(Trifluoromethoxy)phenyl)-1,2,4-triazin-3-yl)methyl)-1H-indole] | 5.59 ± 0.13
COc1ccc(-c2nnc(Cc3n[nH]c4ccccc34)nc2-c2ccc(OC)cc2)cc1 [Compound 14, 3-((5,6-Bis(4-methoxyphenyl)-1,2,4-triazin-3-yl)methyl)-1H-indazole] | 6.67 ± 0.03
O=C(c1ccc(-c2nnc(Cc3c[nH]c4ccccc34)nc2-c2ccccc2)cc1)N1CCOCC1 [Compound 74, (4-(3-((1H-Indol-3-yl)methyl)-5-phenyl-1,2,4-triazin-6-yl)phenyl)(morpholino)methanone] | 7.19 ± 0.07
FC(F)(F)Oc1ccccc1-c1cnnc(Cc2c[nH]c3ccccc23)n1 [Compound 26, 3-((5-(2-(Trifluoromethoxy)phenyl)-1,2,4-triazin-3-yl)methyl)-1H-indole] | <4.70
c1ccc(-c2nc(Cc3c[nH]c4cnccc34)nnc2-c2cnccn2)cc1 [Compound 60, 3-((5-Phenyl-6-(pyrazin-2-yl)-1,2,4-triazin-3-yl)methyl)-1H-pyrrolo[2,3-c]pyridine] | 5.91± 0.06
CS(=O)(=O)NCc1ccc(-c2nc(Cc3c[nH]c4ccccc34)nnc2-c2ccccc2)cc1 [Compound 47, N-(4-(3-((1H-indol-3-yl)methyl)-6-phenyl-1,2,4-triazin-5-yl)benzyl)methanesulfonamide] | 6.72 ± 0.06
NC(=O)CNC(=O)c1ccc(-c2nnc(Cc3c[nH]c4ccccc34)nc2-c2ccccc2)cc1 [Compound 81, 4-(3-((1H-Indol-3-yl)methyl)-5-phenyl-1,2,4-triazin-6-yl)-N-(2-amino-2-oxoethyl)benzamide] | 5.80 ± 0.11
Methyl 3-(3-((1H-Indol-3-yl)methyl)-6-phenyl-1,2,4-triazin-5-yl)benzoate [Compound 54] | 6.94 ± 0.03
Cc1cc(Cc2nnc(-c3ccccc3)c(-c3ccccc3)n2)n[nH]1 [Compound 23, 3-((5-Methyl-1H-pyrazol-3-yl)methyl)-5,6-diphenyl-1,2,4-triazine] | 4.97 ± 0.23
Cc1cc(Nc2nnc(-c3ccccc3)c(-c3ccccc3)n2)n[nH]1 [Compound 25, N-(5-Methyl-1H-pyrazol-3-yl)-5,6-diphenyl-1,2,4-triazin-3-amine] | <4.70
COc1ccc(-c2nnc(Cc3c[nH]c4ccc(F)cc34)nc2-c2ccc(OC)cc2)cc1 [Compound 12, 3-((5,6-Bis(4-methoxyphenyl)-1,2,4-triazin-3-yl)methyl)-5-fluoro-1H-indole] | 6.92 ± 0.07
c1ccc(-c2nc(Cc3c[nH]c4ccccc34)nnc2-c2cccnn2)cc1 [Compound 31, 3-((5-Phenyl-6-(pyridazin-3-yl)-1,2,4-triazin-3-yl)methyl)-1H-indole] | 6.85 ± 0.03
OCc1ccc(-c2nnc(Cc3c[nH]c4ccccc34)nc2-c2ccccc2)cc1 [Compound 40, (4-(3-((1H-Indol-3-yl)methyl)-5-phenyl-1,2,4-triazin-6-yl)phenyl)methanol] | 7.76 ± 0.06
c1ccc(-c2nc(Cc3c[nH]c4cnccc34)nnc2-c2ccnnc2)cc1 [Compound 62, 3-((5-Phenyl-6-(pyridazin-4-yl)-1,2,4-triazin-3-yl)methyl)-1H-pyrrolo[2,3-c]pyridine] | 6.21 ± 0.04
Methyl 3-(3-((1H-Indol-3-yl)methyl)-5-phenyl-1,2,4-triazin-6-yl)benzoate [Compound 53] | 6.40 ± 0.05
c1ccc(-c2nnc(Cc3c[nH]c4cnccc34)nc2-c2ccc(CN3CCOCC3)cc2)cc1 [Compound 63, 4-(4-(3-((1H-Pyrrolo[2,3-c]pyridin-3-yl)methyl)-6-phenyl-1,2,4-triazin-5-yl)benzyl)morpholine] | 7.27 ± 0.06
